Measurements published in ChEMBL document CHEMBL4613281, “Missing Selectivity of Targeted 4β-Phorbol Prodrugs Expected to be Potential Chemotherapeutics” (2020).
Activity calls are given as the source filed them. The rule behind the calls is not given here. Starred links: 1 amine or outer side, 2 acyl side, 3 side chain; linkers in the order of their positions; H or OH if unused. Non-standard residues stand in square brackets, D forms with d. Residues, ends and D or L forms follow the SMILES beside them. *: point of attachment. X1 = CC(=O)O[C@@]12[C@H](O*)[C@@H](C)[C@@]3(O)[C@@H](C=C(CO)C[C@]4(O)C(=O)C(C)=C[C@@H]34)[C@@H]1C2(C)C; 12Ado = NCCCCCCCCCCCC(=O)O; Morpholide = C1CN(*)CCO1; CO = O=C([*:1])[*:2]

Legend:
LNCaP [1] = test: Antiproliferative activity against human LNCAP cells at 40 uM incubated for 72 hrs by MTT assay relative to control; type: functional
CWR22R [2] = test: Antiproliferative activity against human 22Rv1 cells at 40 uM incubated for 72 hrs by MTT assay relative to control; type: functional
DU-145 [3] = test: Antiproliferative activity against human DU145 cells at 40 uM incubated for 72 hrs by MTT assay relative to control; type: functional
PC-3 [4] = test: Antiproliferative activity against human PC3 cells at 40 uM incubated for 72 hrs by MTT assay relative to control; type: functional
LNCaP [5] = test: Antiproliferative activity against human LNCAP cells incubated for 72 hrs by MTT assay; type: functional, cell-based
CWR22R [6] = test: Antiproliferative activity against human 22Rv1 cells incubated for 72 hrs by MTT assay; type: functional, cell-based
DU-145 [7] = test: Antiproliferative activity against human DU145 cells incubated for 72 hrs by MTT assay; type: functional, cell-based
PC-3 [8] = test: Antiproliferative activity against human PC3 cells incubated for 72 hrs by MTT assay; type: functional, cell-based
[9] = target: Protein kinase C alpha type (Homo sapiens) (UniProt P17252); test: Displacement of [3H]PDBu from recombinant human PKCalpha expressed in baculovirus infected Sf9 insect cells incubated for 10 mins by liquid scintillation counting method
[10] = target: T1, Protein kinase C (PKC) (Homo sapiens) (UniProt O94806+P41743+P17252+P05129+Q05655+P05771+Q05513+Q02156+P24723+Q15139+Q04759); test: Activation of PKC in human 22Rv1 cells assessed as increase in ERK1/ERK2 phosphorylations at 10 nM incubated for 30 mins by Western blot analysis; type: cell-based; settings: CWR22R
[11] = target: T1, Protein kinase C (PKC) (Homo sapiens); test: Activation of PKC in human DU145 cells assessed as increase in ERK1/ERK2 phosphorylation at 10 nM incubated for 30 mins by Western blot analysis; type: cell-based; settings: DU-145
LNCaP [12] = test: Antiproliferative activity against human LNCAP cells at 1 to 40 uM incubated for 72 hrs by MTT assay; type: functional, cell-based
CWR22R [13] = test: Antiproliferative activity against human 22Rv1 cells at 1 to 40 uM incubated for 72 hrs by MTT assay; type: functional, cell-based
DU-145 [14] = test: Antiproliferative activity against human DU145 cells at 1 to 40 uM incubated for 72 hrs by MTT assay; type: functional, cell-based
PC-3 [15] = test: Antiproliferative activity against human PC3 cells at 1 to 40 uM incubated for 72 hrs by MTT assay; type: functional, cell-based
LNCaP [16] = test: Cytotoxicity against human LNCAP cells assessed as effect on cell membrane incubated for 72 hrs by LDH assay; type: functional, cell-based
CWR22R [17] = test: Cytotoxicity against human 22Rv1 cells assessed as effect on cell membrane incubated for 72 hrs by LDH assay; type: functional, cell-based
DU-145 [18] = test: Cytotoxicity against human DU145 cells assessed as effect on cell membrane incubated for 72 hrs by LDH assay; type: functional, cell-based
PC-3 [19] = test: Cytotoxicity against human PC3 cells assessed as effect on cell membrane incubated for 72 hrs by LDH assay; type: functional, cell-based
[20] = target: T1, Protein kinase C (PKC) (Homo sapiens); test: Activation of PKC in human 22Rv1 cells assessed as increase in ERK1/ERK2 phosphorylation at 20 uM incubated for 30 mins by Western blot analysis; type: cell-based; settings: CWR22R
[21] = target: T1, Protein kinase C (PKC) (Homo sapiens); test: Activation of PKC in human DU145 cells assessed as increase in ERK1/ERK2 phosphorylation at 20 uM incubated for 30 mins by Western blot analysis; type: cell-based; settings: DU-145
CWR22R [22] = test: Up regulation of PCKalpha in human 22Rv1 cells at 20 uM incubated for 24 hrs by Western blot analysis; type: functional, cell-based
CWR22R [23] = test: Up regulation of PCKalpha in human 22Rv1 cells incubated for 72 hrs by Western blot analysis; type: functional, cell-based
CWR22R [24] = test: Up regulation of PCKdelta in human 22Rv1 cells incubated for 72 hrs by Western blot analysis; type: functional, cell-based
CWR22R [25] = test: Up regulation of PSMA in human 22Rv1 cells incubated for 72 hrs by Western blot analysis; type: functional, cell-based
LNCaP [26] = test: Antiproliferative activity against human LNCAP cells at 20 to 40 uM incubated for 72 hrs by MTT assay relative to control; type: functional
LNCaP [27] = test: Antiproliferative activity against human LNCAP cells incubated for 72 hrs in presence of pan-PKC inhibitor Go6983 by MTT assay; type: functional, cell-based

Structure (SMILES)	Activity (LNCaP [1]) [%]	Activity (CWR22R [2]) [%]	Activity (PC-3 [4]) [%]	[3H]PDBu displacement (active/not active) [9]	Activity (LNCaP [16])	Activity (CWR22R [17])	Activity (DU-145 [18])	Activity (PC-3 [19])	Activity [20]	Activity [21]	Activity (CWR22R [22])	Activity (CWR22R [23])	Activity (CWR22R [24])	Activity (CWR22R [25])	other results
C/C=C(/C)C(=O)O[C@H]1C(C)=C2[C@H]([C@@H]1OC(=O)CCCCCCC)[C@@](C)(OC(C)=O)C[C@H](OC(=O)CCCCCCCCCCCNC(=O)C[C@H](N)C(N)=O)[C@@]1(O)[C@H]2OC(=O)[C@@]1(C)O	4	27	15												Activity (DU-145 [3]): 20%; Activity (LNCaP [5]): Dose-dependent effect; Activity (CWR22R [6]): Dose-dependent effect; Activity (DU-145 [7]): Dose-dependent effect; Activity (PC-3 [8]): Dose-dependent effect
CCCCCCCCCCCCCC(=O)O[C@@H]1[C@@H](C)[C@@]2(O)[C@@H](C=C(CO)C[C@]3(O)C(=O)C(C)=C[C@@H]23)[C@@H]2C(C)(C)[C@]12OC(C)=O				Active											Activity [10]: Active; Activity [11]: Active
CC(=O)O[C@@]12[C@H](OC(=O)CCCCCCCCCCCNC(=O)C[C@H](N)C(C)C)[C@@H](C)[C@@]3(O)[C@@H](C=C(CO)C[C@]4(O)C(=O)C(C)=C[C@@H]34)[C@@H]1C2(C)C				Active	inactive	inactive	inactive	inactive	Active	Active	Active	inactive	inactive	inactive	Activity (LNCaP [12]): inactive; Activity (CWR22R [13]): inactive; Activity (DU-145 [14]): inactive; Activity (PC-3 [15]): inactive
CC(=O)NCC(=O)N[C@@H](CCCCN)C(=O)N[C@@H](C)C(=O)N[C@@H](Cc1ccccc1)C(=O)N[C@@H](CCCNC(=N)N)C(=O)N[C@@H](CCCNC(=N)N)C(=O)N[C@@H](CC(C)C)C(=O)NCCCCCCCCCCCC(=O)O[C@@H]1[C@@H](C)[C@@]2(O)[C@@H](C=C(CO)C[C@]3(O)C(=O)C(C)=C[C@@H]23)[C@@H]2C(C)(C)[C@]12OC(C)=O (Ac-GKAFRRL[12Ado]-X1)		25	15	Active	inactive	inactive	inactive	inactive	Active	Active	inactive	inactive	inactive	inactive	
CC(=O)O[C@@]12[C@H](OC(=O)CCCCCCCCCCCNC(=O)C[C@H](N)C(=O)N[C@@H](CCC(=O)N[C@@H](CCC(=O)N[C@@H](CCC(=O)N[C@@H](CCC(=O)O)C(=O)O)C(=O)O)C(=O)O)C(=O)O)[C@@H](C)[C@@]3(O)[C@@H](C=C(CO)C[C@]4(O)C(=O)C(C)=C[C@@H]34)[C@@H]1C2(C)C			10	Active	inactive	inactive	inactive	inactive	inactive	Active	Active	inactive	inactive	inactive	
CC(=O)O[C@@]12[C@H](OC(=O)CCCCCCCCCCCNC(=O)[C@@H](N)CC(C)C)[C@@H](C)[C@@]3(O)[C@@H](C=C(CO)C[C@]4(O)C(=O)C(C)=C[C@@H]34)[C@@H]1C2(C)C	60	10	30	Active	inactive	inactive	inactive	inactive	Active	Active	inactive	inactive	inactive	inactive	Activity (DU-145 [3]): 40%
CC(=O)O[C@@]12[C@H](OC(=O)CCCCCCCCCCCNC(=O)[C@H](CC(C)C)NC(=O)[C@H](CCC(N)=O)NC(=O)[C@H](CC(C)C)NC(=O)[C@H](CCCCN)NC(=O)[C@H](CO)NC(=O)[C@H](CO)NC(=O)[C@H](Cc3cnc[nH]3)NC(=O)N3CCOCC3)[C@@H](C)[C@@]3(O)[C@@H](C=C(CO)C[C@]4(O)C(=O)C(C)=C[C@@H]34)[C@@H]1C2(C)C ({Morpholide-CO}-HSSKLQL[12Ado]-X1)				inactive	inactive	inactive	inactive	inactive	Active	Active					Activity (LNCaP [26]): 32%; Activity (LNCaP [27]): inactive
C/C=C(/C)C(=O)O[C@H]1C(C)=C2[C@H]([C@@H]1OC(=O)CCCCCCC)[C@@](C)(OC(C)=O)C[C@H](OC(=O)CCCCCCCCCCCNC(=O)C[C@H](N)C(=O)N[C@@H](CCC(=O)N[C@@H](CCC(=O)N[C@@H](CCC(=O)N[C@@H](CCC(=O)O)C(=O)O)C(=O)O)C(=O)O)C(=O)O)[C@@]1(O)[C@H]2OC(=O)[C@@]1(C)O [MIPSAGARGIN]	35	40	32												
